Results reported in publication PMC11409674, “Raffinocyclicin is a novel plasmid-encoded circular bacteriocin produced by Lactococcus raffinolactis with broad-spectrum activity against many gram-positive food pathogens” (Applied and environmental microbiology, 2024).
“Also recorded” adds a separate entry of the source.

Columns and labels:
[1] = tested on: proteases; design: method as in 4 sources, ref 33 = [33]; PMID 21948835; doi:10.1128/AEM.06348-11; 33 Masuda Y Ono H Kitagawa H Ito H Mu F Sawa N Zendo T Sonomoto K Identification and characterization of leucocyclicin Q, a novel cyclic bacteriocin produced by Leuconostoc mesenteroides TK41401 Appl ||| ref 27 = [27]; PMID 21057028; doi:10.1128/AEM.01173-10; 27 Borrero J Brede DA Skaugen M Diep DB Herranz C Nes IF Cintas LM Hernández PE Characterization of garvicin ML, a novel circular bacteriocin produced by Lactococcus garvieae DCC43, isolated from mall ||| ref 30 = [30]; PMID 29177092; doi:10.1099/mgen.0.000134; 30 van Heel AJ Montalban-Lopez M Oliveau Q Kuipers OP Genome-guided identification of novel head-to-tail cyclized antimicrobial peptides, exemplified by the discovery of pumilarin Microb Genom 2017 3 ||| ref 29 = [29]; PMID 18552180; doi:10.1128/AEM.00817-08; 29 Martin-Visscher LA van Belkum MJ Garneau-Tsodikova S Whittal RM Zheng J McMullen LM Vederas JC Isolation and characterization of carnocyclin A, a novel circular bacteriocin produced by Carnobacteri; conditions: cited from earlier work
[2] = tested on: Bacilllus cereus KH 1453; experiment: spot-on-lawn assay; format: cell-based; design: key: –: no activity; +: 0.5–5 mm inhibition zone; ++: >5–≤10 mm inhibition zone; +++: >10 mm inhibition zone; conditions: producer spot on M17, chloroform-inactivated, overlay ~7.0 log CFU/mL indicator; 37 °C, Aerobic, BHI; true halo, triplicate
[3] = tested on: S. aureus C5M; experiment: spot-on-lawn assay; format: cell-based, Staphylococcus aureus; design: key: –: no activity; +: 0.5–5 mm inhibition zone; ++: >5–≤10 mm inhibition zone; +++: >10 mm inhibition zone; conditions: producer spot on M17, chloroform-inactivated, overlay ~7.0 log CFU/mL indicator; 37 °C, Aerobic, BHI; true halo, triplicate
[4] = residual antimicrobial activity after NaOH treatment; format: physicochemical; conditions: NaOH 0.2 M, 37 °C, 4 h
Protocol: The effects of proteinase K (1 mg/mL; Sigma-Aldrich, St Louis, USA), trypsin (1 mg/mL; Merck KgaA, Darmstad, DE), and 0.2 M NaOH on antimicrobial activity were evaluated on agar plates by the methods described previously ([42]). Briefly, 5 µL of an overnight growth suspension of the strain L. raffinolactis APC 3967 was spotted four times on a plate and incubated at optimal conditions. Afterward, the cells were inactivated by chloroform, and 40 µL of the corresponding treatment (protease or NaOH 0.2 M) was spotted around the producer strain. The control was treated with 10 mM PBS, pH 7.4. The plate was incubated at 37°C for 4 h to favor protease activity. The plate was then overlaid with L. lactis HP and incubated at 30°C for 24 h. Results were interpreted by measuring the true halo of the sample, and the following equation calculated the final values of the residual activity: (true halo of treated condition/true halo of the control) × 100 = residual activity (%).

[5] = tested on: VRE APC 1028; experiment: spot-on-lawn assay; format: cell-based, vancomycin-resistant enterococci; conditions: producer spot on M17, chloroform-inactivated, overlay ~7.0 log CFU/mL indicator; 37 °C, Aerobic, BHI; true halo, triplicate
[6] = tested on: Clostridium perfringens EM124; format: cell-based; conditions: producer spot on M17, chloroform-inactivated, overlay ~7.0 log CFU/mL indicator; 37 °C, Anaerobic, RCM; true halo, triplicate
[7] = tested on: Escherichia sp. UCC; experiment: spot-on-lawn assay; format: cell-based; design: key to Activity (inhibition zone): –: no activity; +: 0.5–5 mm inhibition zone; ++: >5–≤10 mm inhibition zone; +++: >10 mm inhibition zone
Protocol: The antimicrobial activity of the strain L. raffinolactis APC 3967 was evaluated on M17 medium by the agar-spot test as described by Giambiagi-deMarval et al. ([42]) with minor modifications ([42]). Briefly, 5 µL of an overnight growth suspension of the producer strain was spotted on the surface of the agar plate and incubated overnight at 30°C. Cells were inactivated by chloroform and overlaid with 3 mL soft agar (0.75% wt/vol) containing the target strain (~7.0 log CFU/mL), and these plates were incubated overnight. The growth conditions of every target strain used in this assay are outlined in Table 1. The interpretation of inhibition was performed by measuring the true halo of the inhibitory zone (total halo – spot size = true halo) and was classified into one of four groups: (i) no inhibition (0 mm); (ii) weak inhibition (0.5–5 mm); (iii) moderate inhibition (>5–≤10 mm); and (iv) strong inhibition (>10 mm). These assays were performed in triplicate.

[8] = tested on: E. faecium DPC 5152; experiment: spot-on-lawn assay; format: cell-based, Enterococcus faecium; conditions: producer spot on M17, chloroform-inactivated, overlay ~7.0 log CFU/mL indicator; 37 °C, Aerobic, BHI; true halo, triplicate
[9] = tested on: VRE APC 1026; experiment: spot-on-lawn assay; format: cell-based, vancomycin-resistant enterococci; conditions: producer spot on M17, chloroform-inactivated, overlay ~7.0 log CFU/mL indicator; 37 °C, Aerobic, BHI; true halo, triplicate
[10] = tested on: Staphylococcus capitis APC 2923; experiment: spot-on-lawn assay; format: cell-based; design: key: –: no activity; +: 0.5–5 mm inhibition zone; ++: >5–≤10 mm inhibition zone; +++: >10 mm inhibition zone; conditions: producer spot on M17, chloroform-inactivated, overlay ~7.0 log CFU/mL indicator; 37 °C, Aerobic, BHI; true halo, triplicate
[11] = tested on: E. faecalis V583; experiment: spot-on-lawn assay; format: cell-based, Enterococcus faecalis; conditions: producer spot on M17, chloroform-inactivated, overlay ~7.0 log CFU/mL indicator; 37 °C, Aerobic, BHI; true halo, triplicate
[12] = tested on: Klebsiella pneumoniae C02.b; experiment: spot-on-lawn assay; format: cell-based; design: key: –: no activity; +: 0.5–5 mm inhibition zone; ++: >5–≤10 mm inhibition zone; +++: >10 mm inhibition zone; conditions: producer spot on M17, chloroform-inactivated, overlay ~7.0 log CFU/mL indicator; 37 °C, Aerobic, BHI; true halo, triplicate
[13] = tested on: Listeria monocytogenes EDGe; experiment: spot-on-lawn assay; format: cell-based; conditions: producer spot on M17, chloroform-inactivated, overlay ~7.0 log CFU/mL indicator; 37 °C, Aerobic, BHI; true halo, triplicate
[14] = tested on: Micrococcus luteus APC 4061; experiment: spot-on-lawn assay; format: cell-based; conditions: producer spot on M17, chloroform-inactivated, overlay ~7.0 log CFU/mL indicator; 37 °C, Aerobic, BHI; true halo, triplicate
[15] = tested on: E. faecium DPC 3675; experiment: spot-on-lawn assay; format: cell-based, Enterococcus faecium; conditions: producer spot on M17, chloroform-inactivated, overlay ~7.0 log CFU/mL indicator; 37 °C, Aerobic, BHI; true halo, triplicate
[16] = tested on: Listeria innocua UCC; experiment: spot-on-lawn assay; format: cell-based; conditions: producer spot on M17, chloroform-inactivated, overlay ~7.0 log CFU/mL indicator; 37 °C, Aerobic, BHI; true halo, triplicate
[17] = tested on: Enterococcus faecium NCD 0942; experiment: spot-on-lawn assay; format: cell-based; conditions: producer spot on M17, chloroform-inactivated, overlay ~7.0 log CFU/mL indicator; 37 °C, Aerobic, BHI; true halo, triplicate
[18] = tested on: Pseudomonas aeruginosa PA-01; experiment: spot-on-lawn assay; format: cell-based; design: key: –: no activity; +: 0.5–5 mm inhibition zone; ++: >5–≤10 mm inhibition zone; +++: >10 mm inhibition zone; conditions: producer spot on M17, chloroform-inactivated, overlay ~7.0 log CFU/mL indicator; 37 °C, Aerobic, BHI; true halo, triplicate
[19] = tested on: S. aureus B2M; experiment: spot-on-lawn assay; format: cell-based, Staphylococcus aureus; conditions: producer spot on M17, chloroform-inactivated, overlay ~7.0 log CFU/mL indicator; 37 °C, Aerobic, BHI; true halo, triplicate
[20] = tested on: Streptococcus agalactiae 35; experiment: spot-on-lawn assay; format: cell-based; conditions: producer spot on M17, chloroform-inactivated, overlay ~7.0 log CFU/mL indicator; 37 °C, Aerobic, TSA; true halo, triplicate
[21] = tested on: Enterococcus faecalis ATCC 29200; experiment: spot-on-lawn assay; format: cell-based; conditions: producer spot on M17, chloroform-inactivated, overlay ~7.0 log CFU/mL indicator; 37 °C, Aerobic, BHI; true halo, triplicate
[22] = tested on: Staphylococcus aureus DPC 5645; experiment: spot-on-lawn assay; format: cell-based; design: key: –: no activity; +: 0.5–5 mm inhibition zone; ++: >5–≤10 mm inhibition zone; +++: >10 mm inhibition zone; conditions: producer spot on M17, chloroform-inactivated, overlay ~7.0 log CFU/mL indicator; 37 °C, Aerobic, BHI; true halo, triplicate
[23] = tested on: VRE APC 1029; experiment: spot-on-lawn assay; format: cell-based, vancomycin-resistant enterococci; conditions: producer spot on M17, chloroform-inactivated, overlay ~7.0 log CFU/mL indicator; 37 °C, Aerobic, BHI; true halo, triplicate
[24] = tested on: Staphylococcus epidermidis DSM 3095; experiment: spot-on-lawn assay; format: cell-based; conditions: producer spot on M17, chloroform-inactivated, overlay ~7.0 log CFU/mL indicator; 37 °C, Aerobic, BHI; true halo, triplicate
[25] = tested on: E. faecium DSM 26544; experiment: spot-on-lawn assay; format: cell-based, Enterococcus faecium; conditions: producer spot on M17, chloroform-inactivated, overlay ~7.0 log CFU/mL indicator; 37 °C, Aerobic, BHI; true halo, triplicate
[26] = tested on: VRE APC 1027; experiment: spot-on-lawn assay; format: cell-based, vancomycin-resistant enterococci; conditions: producer spot on M17, chloroform-inactivated, overlay ~7.0 log CFU/mL indicator; 37 °C, Aerobic, BHI; true halo, triplicate
[27] = tested on: L. lactis ATCC 11454; experiment: spot-on-lawn assay; format: cell-based, Lactococcus lactis; conditions: producer spot on M17, chloroform-inactivated, overlay ~7.0 log CFU/mL indicator; 30 °C, Aerobic, GM17; true halo, triplicate
[28] = tested on: Lactococcus lactis HP; experiment: spot-on-lawn assay; format: cell-based; conditions: producer spot on M17, chloroform-inactivated, overlay ~7.0 log CFU/mL indicator; 30 °C, Aerobic, GM17; true halo, triplicate
[29] = tested on: Lactobacillus delbrueckii subsp. bulgaricus LMG 6901; experiment: spot-on-lawn assay; format: cell-based; conditions: producer spot on M17, chloroform-inactivated, overlay ~7.0 log CFU/mL indicator; 37 °C, Anaerobic, MRS; true halo, triplicate
[30] = tested on: Staphylococcus pseudointermedius DK 279; experiment: spot-on-lawn assay; format: cell-based; design: key: –: no activity; +: 0.5–5 mm inhibition zone; ++: >5–≤10 mm inhibition zone; +++: >10 mm inhibition zone; conditions: producer spot on M17, chloroform-inactivated, overlay ~7.0 log CFU/mL indicator; 37 °C, Aerobic, BHI; true halo, triplicate
[31] = tested on: S. agalactiae 119; experiment: spot-on-lawn assay; format: cell-based, Streptococcus agalactiae; conditions: producer spot on M17, chloroform-inactivated, overlay ~7.0 log CFU/mL indicator; 37 °C, Aerobic, TSA; true halo, triplicate
[32] = tested on: Leuconostoc mesenteroides KH 24; experiment: spot-on-lawn assay; format: cell-based; conditions: producer spot on M17, chloroform-inactivated, overlay ~7.0 log CFU/mL indicator; 30 °C, Aerobic, MRS; true halo, triplicate

pumilarin
sensitivity to proteolytic activity [1]: low-sensitivity profile

raffinocyclicin
Activity (inhibition zone) [2]: – | Activity (inhibition zone) [3]: – | antimicrobial activity after NaOH treatment, in words ([4]; indicator L. lactis HP): resistant; also recorded: remained unchanged | Phenotype ([4]; 40 µL spotted around chloroform-inactivated producer spot, overlay L. lactis HP, 30 °C, 24 h): R | Residual activity ([4]; 40 µL spotted around chloroform-inactivated producer spot, overlay L. lactis HP, 30 °C, 24 h, true halo treated/control (10 mM PBS pH 7.4) × 100): 100% | Activity (inhibition zone) [5]: ++ (>5–≤10 mm inhibition zone) | Activity (inhibition zone) [6]: +++ (>10 mm inhibition zone) | Activity (inhibition zone) ([7]; producer spot on M17, chloroform-inactivated, overlay ~7.0 log CFU/mL indicator, 37 °C, Aerobic, BHI, true halo, triplicate): – | inhibition in the spot-on-lawn assay, in words ([7]; spot-on-lawn assay, producer L. raffinolactis APC 3967): No inhibition | Activity (inhibition zone) [8]: + (0.5–5 mm inhibition zone) | Activity (inhibition zone) [9]: ++ (>5–≤10 mm inhibition zone) | Activity (inhibition zone) [10]: – | Activity (inhibition zone) [11]: + (0.5–5 mm inhibition zone) | Activity (inhibition zone) [12]: – | Activity (inhibition zone) [13]: + (0.5–5 mm inhibition zone) | Activity (inhibition zone) [14]: ++ (>5–≤10 mm inhibition zone) | Activity (inhibition zone) [15]: ++ (>5–≤10 mm inhibition zone) | Activity (inhibition zone) [16]: ++ (>5–≤10 mm inhibition zone) | Activity (inhibition zone) [17]: ++ (>5–≤10 mm inhibition zone) | Activity (inhibition zone) [18]: – | Activity (inhibition zone) [19]: + (0.5–5 mm inhibition zone) | Activity (inhibition zone) [20]: ++ (>5–≤10 mm inhibition zone) | Activity (inhibition zone) [21]: ++ (>5–≤10 mm inhibition zone) | Activity (inhibition zone) [22]: – | Activity (inhibition zone) [23]: ++ (>5–≤10 mm inhibition zone) | Activity (inhibition zone) [24]: + (0.5–5 mm inhibition zone) | Activity (inhibition zone) [25]: + (0.5–5 mm inhibition zone) | Activity (inhibition zone) [26]: ++ (>5–≤10 mm inhibition zone) | Activity (inhibition zone) [27]: +++ (>10 mm inhibition zone) | Activity (inhibition zone) [28]: +++ (>10 mm inhibition zone) | Activity (inhibition zone) [29]: + (0.5–5 mm inhibition zone) | Activity (inhibition zone) [30]: – | Activity (inhibition zone) [31]: ++ (>5–≤10 mm inhibition zone) | Activity (inhibition zone) [32]: + (0.5–5 mm inhibition zone)

garvicin ML
sensitivity to proteolytic activity [1]: resistant
